For this test, the target named is T1, HIV-integrase (recombinant integrase) (Human immunodeficiency virus type 1 group M subtype B, UniProt P12497).
T1 construct: Recombinant integrase (0.26 ng) was incubated with the beads
The experiment in a line: HIV-Integrase Inhibition Activity (SPA bead strand-transfer assay). Type of test: biochemical. The note with it: biotin labeled substrate DNA on SPA beads, P33 labeled target DNA, read-out: Activity (IC50 against HIV-integrase). The protocol: HIV-Integrase Inhibition Activity. To evaluate in-vitro activity against HIV-integrase, 5 pmole of biotin labeled substrate DNA was bound to 100 μg of Streptavidin coated PVT SPA beads (Amersham Pharmacia Biotech). Recombinant integrase (0.26 ng) was incubated with the beads for 90 min at 37° C. Unbound enzyme was removed by washing the complex followed by addition of inhibitors and 0.1 fmol of P33 labeled target DNA. The reaction was stopped by adding EDTA to a final concentration of 10 mM. Samples were counted in TopCountNXT (Packard) and the CPM was used as a measure of integration. The reaction condition was as described in A. Engelman and R. Craigie, J. Virol. 69, 5908-5911 (1995). The sequences of substrate and target DNA were described in Nucleic Acid Research 22, 1121-1122 (1994). Activity equal to A refers to a compound having IC50=0.002 to 0.10 μM while B and C denote compounds having IC50=0.1 to 1.0 μM and IC50≧1.0 μM respectively.

Each structure is given as a SMILES string.

Broadly, the IC50 is the concentration that inhibits the measured activity by half. With `Cc1ncn(-c2cc(F)ccc2CNC(=O)c2nc3n(c(=O)c2O)CCS(=O)(=O)C3(C)C)n1` [Example 6, Pyrimido[2,1-c][1,4]thiazine-2-carboxamide, N-[[4-fluoro-2-(3-methyl-1H-1,2,4-triazol-1-yl)phenyl]methyl]-4,6,7,9-tetrahydro-3-hydroxy-9,9-dimethyl-4-oxo-, 8,8-dioxide], the concentration for half-maximal inhibition (IC50) lay in the range of 2 to 100 nM.
The result for `Cc1ncnn1-c1cc(F)ccc1CNC(=O)c1nc2n(c(=O)c1O)CCS(=O)(=O)C21CCOCC1` [Example 18, Spiro[4H-pyran-4,9′(4′H)-pyrimido[2,1-c][1,4]thiazine]-2′-carboxamide, N-[[4-fluoro-2-(5-methyl-1H-1,2,4-triazol-1-yl)phenyl]methyl]-2,3,5,6,6′,7′-hexahydro-3′-hydroxy-4′-oxo-, 8′,8′-dioxide] reads 2 to 100 nM; that for `O=C(NCc1ccc(F)cc1)c1nc2n(c(=O)c1O)CCCS(=O)(=O)C21CCCC1` [Example 25, Spiro[cyclopentane-1,10′(4′H)-[6H]pyrimido[2,1-c][1,4]thiazepine]-2′-carboxamide, N-[(4-fluorophenyl)methyl]-7′,8′-dihydro-3′-hydroxy-4′-oxo-, 9′,9′-dioxide], 2 to 100 nM; that for `Cc1ncnn1-c1cc(F)ccc1CNC(=O)c1nc2n(c(=O)c1O)CCS(=O)(=O)C21CC1` [Example 11, Spiro[cyclopropane-1,9′(4′H)-pyrimido[2,1-c][1,4]thiazine]-2′-carboxamide, N-[[4-fluoro-2-(5-methyl-1H-1,2,4-triazol-1-yl)phenyl]methyl]-6′,7′-dihydro-3′-hydroxy-4′-oxo-, 8′,8′-dioxide], 2 to 100 nM.
The result for `O=C(NCc1ccc(F)cc1)c1nc2n(c(=O)c1O)CCCS(=O)(=O)C2` [Example 21, 6H-Pyrimido[2,1-c][1,4]thiazepine-2-carboxamide, N-[(4-fluorophenyl)methyl]-4,7,8,10-tetrahydro-3-hydroxy-4-oxo-, 9,9-dioxide] reads 2 to 100 nM; that for `CC1c2nc(C(=O)NCc3ccc(F)cc3)c(O)c(=O)n2CCS1(=O)=O` (stereo not shown) [Example 3, Pyrimido[2,1-c][1,4]thiazine-2-carboxamide, N-[(4-fluorophenyl)methyl]-4,6,7,9-tetrahydro-3-hydroxy-9-methyl-4-oxo-, 8,8-dioxide], 2 to 100 nM; that for `Cc1ncn(-c2cc(F)ccc2CNC(=O)c2nc3n(c(=O)c2O)CCS(=O)(=O)C32CC2)n1` [Example 10, Spiro[cyclopropane-1,9′(4′H)-pyrimido[2,1-c][1,4]thiazine]-2′-carboxamide, N-[[4-fluoro-2-(3-methyl-1H-1,2,4-triazol-1-yl)phenyl]methyl]-6′,7′-dihydro-3′-hydroxy-4′-oxo-, 8′,8′-dioxide], 2 to 100 nM.
The result for `CC1c2nc(C(=O)NCc3ccc(F)cc3)c(O)c(=O)n2CCCS1(=O)=O` (stereo not shown) [Example 22, 6H-Pyrimido[2,1-c][1,4]thiazepine-2-carboxamide, N-[(4-fluorophenyl)methyl]-4,7,8,10-tetrahydro-3-hydroxy-10-methyl-4-oxo-, 9,9-dioxide] reads 2 to 100 nM; that for `O=C(NCc1ccc(F)cc1-n1cncn1)c1nc2n(c(=O)c1O)CCCS(=O)(=O)C21CCOCC1` [Example 28, Spiro[4H-pyran-4,10′(4′H)-[6H]pyrimido[2,1-c][1,4]thiazepine]-2′-carboxamide, N-[[4-fluoro-2-(1H-1,2,4-triazol-1-yl)phenyl]methyl]-2,3,5,6,7′,8′-hexahydro-3′-hydroxy-4′-oxo-, 9′,9′-dioxide], 2 to 100 nM; that for `O=C(NCc1ccc(F)cc1)c1nc2n(c(=O)c1O)CCS(=O)(=O)C21CC1` [Example 8, Spiro[cyclopropane-1,9′(4′H)-pyrimido[2,1-c][1,4]thiazine]-2′-carboxamide, N-[(4-fluorophenyl)methyl]-6′,7′-dihydro-3′-hydroxy-4′-oxo-, 8′,8′-dioxide], 2 to 100 nM.
Turning to `CC1(C)c2nc(C(=O)NCc3ccc(F)cc3-n3cncn3)c(O)c(=O)n2CCS1(=O)=O` [Example 5, Pyrimido[2,1-c][1,4]thiazine-2-carboxamide, N-[[4-fluoro-2-(1H-1,2,4-triazol-1-yl)phenyl]methyl]-4,6,7,9-tetrahydro-3-hydroxy-9,9-dimethyl-4-oxo-, 8,8-dioxide], the IC50 lay within 2 to 100 nM.
The result for `O=C(NCc1ccc(F)cc1)c1nc2n(c(=O)c1O)CCS(=O)(=O)C21CCOCC1` [Example 16, Spiro[4H-pyran-4,9′(4′H)-pyrimido[2,1-c][1,4]thiazine]-2′-carboxamide, N-[(4-fluorophenyl)methyl]-2,3,5,6,6′,7′-hexahydro-3′-hydroxy-4′-oxo-, 8′,8′-dioxide] reads 2 to 100 nM; that for `O=C(NCc1ccc(F)cc1-n1cncn1)c1nc2n(c(=O)c1O)CCS(=O)(=O)C21CC1` [Example 9, Spiro[cyclopropane-1,9′(4′H)-pyrimido[2,1-c][1,4]thiazine]-2′-carboxamide, N-[[4-fluoro-2-(1H-1,2,4-triazol-1-yl)phenyl]methyl]-6′,7′-dihydro-3′-hydroxy-4′-oxo-, 8′,8′-dioxide], 2 to 100 nM.
The result for `Cc1ncnn1-c1cc(F)ccc1CNC(=O)c1nc2n(c(=O)c1O)CCS(=O)(=O)C2(C)C` [Example 7, Pyrimido[2,1-c][1,4]thiazine-2-carboxamide, N-[[4-fluoro-2-(5-methyl-1H-1,2,4-triazol-1-yl)phenyl]methyl]-4,6,7,9-tetrahydro-3-hydroxy-9,9-dimethyl-4-oxo-8,8-dioxide] reads 2 to 100 nM; that for `O=C(NCc1ccc(F)cc1)c1nc2n(c(=O)c1O)CCS(=O)(=O)C21CCCC1` [Example 12, Spiro[cyclopentane-1,9′(4′H)-pyrimido[2,1-c][1,4]thiazine]-2′-carboxamide, N-[(4-fluorophenyl)methyl]-6′,7′-dihydro-3′-hydroxy-4′-oxo-, 8′,8′-dioxide], 2 to 100 nM; that for `O=C(NCc1ccc(F)cc1)c1nc2n(c(=O)c1O)CCCSC2` [Example 19, N-(4-Fluorobenzyl)-3-hydroxy-4-oxo-6,7,8,10-tetrahydro-4H-pyrimido[2,1-c][1,4]thiazepine-2-carboxamide], 2 to 100 nM.
The result for `Cc1cc(CNC(=O)c2nc3n(c(=O)c2O)CCCS(=O)(=O)C32CCOCC2)ccc1F` [Example 27, Spiro[4H-pyran-4,10′(4′H)-[6H]pyrimido[2,1-c][1,4]thiazepine]-2′-carboxamide, N-[(4-fluoro-3-methylphenyl)methyl]-2,3,5,6,7′,8′-hexahydro-3′-hydroxy-4′-oxo-, 9′,9′-dioxide] reads 2 to 100 nM; that for `O=C(NCc1ccc(F)cc1-n1cncn1)c1nc2n(c(=O)c1O)CCS(=O)(=O)C21CCCC1` [Example 13, Spiro[cyclopentane-1,9′(4′H)-pyrimido[2,1-c][1,4]thiazine]-2′-carboxamide, N-[[4-fluoro-2-(1H-1,2,4-triazol-1-yl)phenyl]methyl]-6′,7′-dihydro-3′-hydroxy-4′-oxo-, 8′,8′-dioxide], 2 to 100 nM; that for `Cc1ncnn1-c1cc(F)ccc1CNC(=O)c1nc2n(c(=O)c1O)CCS(=O)(=O)C21CCCC1` [Example 15, Spiro[cyclopentane-1,9′(4′H)-pyrimido[2,1-c][1,4]thiazine]-2′-carboxamide, N-[[4-fluoro-2-(5-methyl-1H-1,2,4-triazol-1-yl)phenyl]methyl]-6′,7′-dihydro-3′-hydroxy-4′-oxo-, 8′,8′-dioxide], 2 to 100 nM.

The record behind these values is patent US7897592B2, “HIV integrase inhibitors” (priority 2005, dated 2011).
